A word on the solubility: it is the dissolved amount per volume that the medium holds.

Converted amounts (≈) assume the structure as drawn. Counter-ions that a name gives are not always drawn. Like-named read-outs stand apart in the source and are kept apart here.

This is an account of results in patent US20230312584A1, “SALT OF NUCLEOSIDE ANALOG, AND CRYSTAL FORM, PHARMACEUTICAL COMPOSITION AND USE THEREOF” (priority 2020, published 2023).

One data set can be described thus: Hygroscopicity test. The data set is classed as physicochemical. To be noted: 25° C., RH80%, 24 hours. On the procedure: An appropriate amount of a test product is taken and spread in a glass-stoppered weighing bottle that has been placed in an artificial climate box (temperature is 25° C.±1° C., relative humidity is 80%±2%) for 24 hours. The weighing bottle is opened, put together with the stopper in the artificial climate box (the temperature is 25° C.±1° C., the relative humidity is 80%±2%) for 24 hours, and then taken out. The moisture content of the test product before and after being placed in the artificial climate box is measured, and the hygroscopicity is measured by comparing the change in moisture content.

The test system of a further data set is SARS-CoV-2. To be noted: according to experimental tests; compounds of CN 202010313870.X; cited from earlier work.
The test system of data set [1] is a variety of other RNA viruses. To be noted: according to experimental tests; compounds of CN 202010313870.X; cited from earlier work.
A short description of another data set: physchem. It counts as physicochemical. To be noted: for Solubility in water: 30 min. On the procedure:
About 10 mg of the test product is taken and put in a 1.5 mL sample tube, to which 1 mL of deionized water is added, and then the sample tube is placed in a constant temperature mixer and shaken at 37° C. for 30 minutes; after shaking, the sample tube is placed in a centrifuge to undergo centrifugation for 2 minutes. Then, 500 μL of the supernatant is taken and diluted with acetonitrile to an appropriate concentration, which is used as a test sample solution for HPLC analysis.
An appropriate amount of sample was weighed and put in a glass test tube, to which a selected solvent was gradually added. The clarification process was observed.

Data set [2] is classed as physicochemical. As to the method: The test product is placed in suitable clean containers, and then placed under conditions of high temperature (80° C.), high humidity (25° C., relative humidity 92.5%), and light (light intensity 4500±500 1× and 90 μw/cm^2), respectively, for 7 days, and samples are taken on the 7th day and tested according to the stability inspection items.

For the compound `Cl.[2H]c1cc([C@]2(C#N)O[C@H](COC(=O)C(C)C)[C@@H](OC(=O)C(C)C)[C@H]2OC(=O)C(C)C)n2ncnc(N)c12` [Hydrochloride of Compound Z, (2R,3R,4R,5R)-2-(4-aminopyrrolo[2,1-f][1,2,4]triazin-7-yl-5-d)-2-cyano-5-(isobutyryloxymethyl)tetrahydrofuran-3,4-diyl bis(2-methylpropanoate) hydrochloride], in “Hygroscopicity test”, the “increase in moisture content” value is recorded as “moisture content of <0.1%”. For the same compound, in “Hygroscopicity test” (listed as hydrochloride of Compound Z, hydrochloride), the Hygroscopicity result was “no hygroscopicity”.
Consider `CC(C)C(=O)OC[C@H]1O[C@@](C#N)(c2ccc3c(N)ncnn23)[C@H](OC(=O)C(C)C)[C@@H]1OC(=O)C(C)C` [Compound W, (2R,3R,4R,5R)-2-(4-aminopyrrolo[2,1-f][1,2,4]triazin-7-yl)-2-cyano-5-(isobutyryloxymethyl)tetrahydrofuran-3,4-diyl bis(2-methylpropanoate)], for which the anti-SARS-CoV-2 activity result in the data set with SARS-CoV-2 is listed as “significant”. In data set [1], the “inhibitory effect on a variety of other RNA viruses” value is reported as “good inhibitory effect”. In addition, the water solubility entry in “physchem” was “poor water solubility”.
On to `[2H]c1cc([C@]2(C#N)O[C@H](COC(=O)C(C)C)[C@@H](OC(=O)C(C)C)[C@H]2OC(=O)C(C)C)n2ncnc(N)c12` [Mesylate of Compound Z, (2R,3R,4R,5R)-2-(4-aminopyrrolo[2,1-f][1,2,4]triazin-7-yl-5-d)-2-cyano-5-(isobutyryloxymethyl)tetrahydrofuran-3,4-diyl bis(2-methylpropanoate) mesylate], for which, in the data set “Hygroscopicity test”, the “increase in moisture content” value is “moisture content of <0.2%”. Also, the Hygroscopicity result in the data set “Hygroscopicity test” (listed as mesylate of Compound Z, mesylate) is listed as “no hygroscopicity”. Besides, the Stability entry in data set [2] is “decomposed obviously and had a peculiar smell”. In “physchem”, this compound yielded a Solubility in water of 0.464 mg/mL.
As to `[2H]c1cc([C@]2(C#N)O[C@H](COC(=O)C(C)C)[C@@H](OC(=O)C(C)C)[C@H]2OC(=O)C(C)C)n2ncnc(N)c12` [Nitrate of Compound Z, (2R,3R,4R,5R)-2-(4-aminopyrrolo[2,1-f][1,2,4]triazin-7-yl-5-d)-2-cyano-5-(isobutyryloxymethyl)tetrahydrofuran-3,4-diyl bis(2-methylpropanoate) nitrate], the Hygroscopicity entry in the data set “Hygroscopicity test” (listed as nitrate of Compound Z, nitrate) is recorded as “no hygroscopicity”. Besides, the “increase in moisture content” value in “Hygroscopicity test” (nitrate) is “moisture content of <0.1%”. Moreover, the Stability result in data set [2] (7 days) is “(80° C.), the solid melted, decomposed,”.
For `Br.CC(C)C(=O)OC[C@H]1O[C@@](C#N)(c2ccc3c(N)ncnn23)[C@H](OC(=O)C(C)C)[C@@H]1OC(=O)C(C)C` [Hydrobromide of Compound W, (2R,3R,4R,5R)-2-(4-aminopyrrolo[2,1-f][1,2,4]triazin-7-yl)-2-cyano-5-(isobutyryloxymethyl)tetrahydrofuran-3,4-diyl bis(2-methylpropanoate) hydrobromide], in the data set “Hygroscopicity test”, the Hygroscopicity entry is “no hygroscopicity” and the “increase in moisture content” value is “RH80%, with an increase in moisture content of <0.1%,”. Further, the Stability entry in data set [2] (7 days) is “Good stability under high temperature (80° C.), high”.
In the case of `O=C(O)/C=C\C(=O)O.[2H]c1cc([C@]2(C#N)O[C@H](COC(=O)C(C)C)[C@@H](OC(=O)C(C)C)[C@H]2OC(=O)C(C)C)n2ncnc(N)c12` [Maleate of Compound Z, (2R,3R,4R,5R)-2-(4-aminopyrrolo[2,1-f][1,2,4]triazin-7-yl-5-d)-2-cyano-5-(isobutyryloxymethyl)tetrahydrofuran-3,4-diyl bis(2-methylpropanoate) maleate], the “increase in moisture content” value in the data set “Hygroscopicity test” is on record as “moisture content of <0.1%”. Moreover, in the data set “Hygroscopicity test” (listed as maleate of Compound Z, maleate), the Hygroscopicity result was “no hygroscopicity”. This compound also displayed a solubility at 30 min in the data set “physchem” (37 °C, water, thermodynamic from solid, Solubility in water) of 351 µg/mL.
On to `[2H]c1cc([C@]2(C#N)O[C@H](COC(=O)C(C)C)[C@@H](OC(=O)C(C)C)[C@H]2OC(=O)C(C)C)n2ncnc(N)c12` [Compound Z, (2R,3R,4R,5R)-2-(4-aminopyrrolo[2,1-f][1,2,4]triazin-7-yl-5-d)-2-cyano-5-(isobutyryloxymethyl)tetrahydrofuran-3,4-diyl bis(2-methylpropanoate)], for which the anti-SARS-CoV-2 activity entry in the data set with SARS-CoV-2 is reported as “significant”. In addition, in data set [1], the “inhibitory effect on a variety of other RNA viruses” value is “good inhibitory effect”. Besides, in the data set “physchem”, the water solubility entry is on record as “poor water solubility” and the Solubility in water is recorded as 0.029 mg/mL (≈ 57.7 µM).
